According to PubChem BioAssay AID504484 (Southern Research Specialized Biocontainment Screening …, 2011):

Test system: human PBMC HIV-1 replication, RT activity in supernatant
Test: HIV-1 replication inhibition in human PBMCs, dose response, cell-based, CXCR4-tropic HIV-1, primary PBMCs (AID 504484)

SMILES	IC50 [µM]
Cc1c2c(=O)n(-c3nc4ccccc4s3)nc-2cc(O)n1C1CC1	3.35
COc1ccc(Cn2c(O)cc3nn(-c4nc5ccccc5s4)c(=O)c-3c2C)cc1	7.71
Cc1c2c(=O)n(-c3nc4ccccc4s3)nc-2cc(O)n1Cc1ccncc1	1.81
Cc1c2c(=O)n(-c3nc4ccccc4s3)nc-2cc(O)n1Cc1cccnc1	2.86
Cc1c2c(=O)n(-c3nc4ccccc4s3)nc-2cc(O)n1Cc1ccccc1Cl	7.44
Cc1c2c(=O)n(-c3nc4ccccc4s3)nc-2cc(O)n1Cc1ccc(F)cc1	7.48
COc1ccccc1Cn1c(O)cc2nn(-c3nc4ccccc4s3)c(=O)c-2c1C	4.42
Cc1c2c(=O)n(-c3nc4ccccc4s3)nc-2cc(O)n1CCc1cccs1	28.7
Cc1c2c(=O)n(-c3nc4ccccc4s3)nc-2cc(O)n1Cc1cccs1	11.5
COc1ccc(CCn2c(O)cc3nn(-c4nc5ccccc5s4)c(=O)c-3c2C)cc1	5.45
Cc1c2c(=O)n(-c3nc4ccccc4s3)nc-2cc(O)n1CCC(C)C	5.68
Cc1c2c(=O)n(-c3nc4ccccc4s3)nc-2cc(O)n1CCc1ccc(O)cc1	1.32
